US8765720B2, “Combination therapy for the treatment of multiple myeloma” (Cephalon, Inc., priority 2009, dated 2014)

Columns and labels:
RPMI8226 cells [1] = test: Apoptotic assay by annexin V and propidium iodide staining; type: cell-based, human; settings: 2.5 nM for each drug, 30 hours
Procedure: To quantify apoptosis in response to drug treatment, RPMI8226 cells (5×10^5 cells per well) were incubated with vehicle or PIs at 37° C. and 5% CO2 for 30 hours. As a positive control, cells were incubated with 250 ng/mL of actinomycin D for 24 or 48 hours. Cells were then washed twice with phosphate-buffered saline, resuspended in binding buffer (100 mM HEPES/NaOH, pH 7.5 containing 1.4 M NaCl and 25 mM CaCl2), and stained with fluorescein isothiocyanate (FITC)-conjugated annexin V and with the fluorescent dye propidium iodide (PrI), according to the manufacturer's protocol (BioVision, Mountain View, Calif.). For each drug treatment, 1×10^5 gated events were recorded. Cells negative for both PI and annexin V staining were considered live; annexin V-positive, PrI-negative cells were considered early apoptotic; annexin V-positive, PrI-positive cells were considered late apoptotic. Flow cytometric analyses were performed using a Beckman Coulter FC500 cytometer with Cytomics CXP software (Beckman Coulter, Fullerton, Calif.).

in vitro = settings: human
Text: The human myeloma cell line RPMI8226 was obtained from American Type Culture Collection (Rockville, Md.). The MM1S myeloma cell line was provided by Dr. Steven Rosen (Northwestern University, Chicago, Ill.). Normal peripheral blood mononuclear cells (PBMCs) were isolated by Histopaque® density gradient centrifugation, according to the manufacturer's protocol (Sigma-Aldrich, St. Louis, Mo.). Myeloma cell lines and PBMCs were maintained in RPMI 1640 (Omega Scientific, Tarzana, Calif.) supplemented with 10% fetal bovine serum, 2 mM L-glutamine, 100 IU/mL penicillin, 100 μg/mL streptomycin, and essential amino acids in an atmosphere of 5% carbon dioxide (CO2) at 37° C.
Cells were seeded at 10^5 cells/100 μL/well in 96-well plates and incubated for 24 hours. RPMI8226 and MM1S cells were cultured in the presence of vehicle, COMPOUND 1, bortezomib, melphalan, COMPOUND 1+bortezomib, or COMPOUND 1+melphalan for 48 hours. After the incubation period, cell viability was quantified using the CellTiter 96® AQueous Non-Radioactive Cell Proliferation Assay (Promega, Madison, Wis.). Each well was treated with MTS (3-(4,5-dimethylthiazol-2-yl)-5-(3-carboxymethoxyphenyl)-2-(4-sulfophenyl)-2H-tetrazolium, inner salt) for 1 to 4 hours, after which absorbance was recorded at 490 nm. The quantity of formazan product as measured by absorbance at 490 nm is directly proportional to the number of living cells in culture.
In order for therapy with two or more PIs to be feasible in vivo, the combination must spare non-neoplastic cells. […] A healthy donor's PBMCs were cultured for 48 hours in the presence of COMPOUND 1 alone, bortezomib alone, or both agents together, and cell viability was quantified by MTS assay.

LAGκ-1A tumor = test: Intramuscular LAGκ-1A tumor xenograft model (serum hIgG, tumor volume); settings: alone or together
Procedure: (§1) Six- to 8-week-old male severe combined immunodeficient (SCID) mice were obtained from the Jackson Laboratory (Bar Harbor, Me.) and maintained in a specific pathogen-free area in our animal resources facility. All animal studies were conducted according to protocols approved by the Institutional Animal Care and Use Committee. Animals were anesthetized with ketamine, xylazine, and isoflurane prior to surgery and were euthanized when tumors reached 2 cm in diameter.
(§2) Biopsy tissue was surgically implanted in the hind limbs of anesthetized SCID mice and passaged through succeeding generations (32).
(§3) Myeloma tumors (LAGκ-1A or LAGκ-1B) were excised from an anesthetized donor mouse, sectioned into 20 to 40 mm^3 pieces, and surgically implanted into the left superficial gluteal muscle of anesthetized naive SCID mice. Recipient mice received weekly injections of anti-asialo GM1 rabbit serum (Wako Bioproducts, Richmond, Va.) to further suppress immune activity. Mice were blindly assigned to one of the experimental groups, and treatment was initiated 7 to 21 days after tumor implantation. COMPOUND 1 was administered via oral gavage daily (0.5-5.0 mg/kg) or twice weekly (5-10 mg/kg). COMPOUND 1 was also administered twice weekly (W, F) via either IV injection (0.5-3.0 mg/kg) or oral gavage (10 mg/kg), as specified. Melphalan (1 mg/kg) was provided via weekly intraperitoneal (IP) injections (W). Bortezomib (0.5 mg/kg) was dispensed twice weekly (T, Th) via IV injection. Control treatment consisted of COMPOUND 1 diluent (3.2 mL 5% mannitol and 800 μL propylene glycol) alone.
Mice bearing MM tumors underwent weekly retro-orbital bleeds. Resulting samples were spun at 13,000 rpm for 30 minutes to isolate serum. The hIgG ELISA kit (Bethyl Laboratories, Montgomery, Tex.) was used according to the manufacturer's specifications. Absorbance at 450 nm with a reference wavelength of 550 nm was determined on a μQuant microplate spectrophotometer with KC Junior software (Bio-Tek Instruments, Winooski, Vt.). Data graphed are the mean±SEM with n=7-8 mice/group.
(§4) As a direct measurement of tumor growth, calipers were used to assess tumor volume weekly, and the formula for an ellipsoid volume was applied ( 4/3π×[width/2]^2×[length/2]).
(§5) Percent inhibition of tumor growth is represented as the tumor volume of the test drug group over the tumor volume of the untreated group (T/C). The optimal value is the minimal T/C ratio that reflects the maximal tumor growth inhibition achieved. The criterion for efficacy for the T/C ratio is ≦42%, according to National Cancer Institute (NCI) standard criteria (44).
(§6) Efficacy of drug therapy against tumors was standardized to the time (t) required for the untreated tumor to grow to a determined size based on the greatest difference in time to reach a tumor volume between the control and treatment group. This value can be represented as the growth delay (in days) between treated and control (tt−tc) (44).
(§7) Tumor growth and hIgG levels were analyzed in terms of treatment group means and standard error. Student's t-test was applied to determine the statistical significance of differences between treatment groups. Minimal significance level was P<0.05.

MM1S cells = test: Cell viability assay (MTS assay), MM1S cells; type: cell-based, human; settings: Homo sapiens, MM1.S, single-agent bortezomib 0.5 nM, 48 hours, read-out: inhibition of cell viability
Procedure: In vitro synergy between COMPOUND 1 and bortezomib or melphalan was assessed using the median effect method of Chou and Talalay (30). Combination indices (CIs) were calculated separately for each combination. […] CIs between 0.9 and 1.1 were considered to indicate additive drug effects (31).

[2] = test system: apoptosis-inducing factor (AIF); test: Immunohistochemical analysis of AIF expression in LAGκ-1B tumors; type: in vivo, SCID mice; settings: COMPOUND 1 1 mg/kg, bortezomib 0.5 mg/kg, alone or both; tumors excised post-treatment
Procedure: LAGκ-1B tumors were fixed in 4% paraformaldehyde and cut into 5 μm sections. Briefly, sections were blocked with Tris-buffered saline with 0.05% Tween-20 (TBST) and 3% BSA for 1 hour at room temperature and then incubated overnight with a rabbit antibody against AIF (Sigma, St. Louis, Mo.). The sections were washed three times with TBST and treated with horse radish […] anti-rabbit antibody (KPL, Gaithersburg, Md.) diluted 1:500 in TBST at room temperature for 2 hours. The slides were washed three times in TBST and placed in 3-amino-9-ethylcarbazole (AEC) buffer for 5 minutes, and color was detected using an AEC kit (Dako, Glostrup, Denmark). Staining was documented using an Olympus BX51 microscope (Olympus Imaging America Inc., Center Valley, Pa.) and analyzed by Microsuite Biological Suite program (Olympus BX51).

LAGκ-1B tumor = test: Intramuscular LAGκ-1B tumor xenograft model (tumor volume)
Procedure: as §1, §2
as §3, with “Melphalan (1 mg/kg) was provided via weekly intraperitoneal (IP) injections (W).” left out
as §4, §5, §6, §7

CD138-negative MM cells = settings: single agent; cited from earlier work
RPMI8226 cells [3] = test: Cell viability assay (MTS assay), RPMI8226 cells; type: cell-based, human; settings: Homo sapiens, RPMI-8226, 48 h, read-out: decrease in cell viability
Procedure: Combination indices (CIs) were calculated separately for each combination. […] CIs between 0.9 and 1.1 were considered to indicate additive drug effects (31).

[4] = bortezomib 0.5 mg/kg IV, COMPOUND 1 1 mg/kg IV, alone or together

| SMILES | proportion of cells in early apoptosis (PrI−/Annexin V+) (RPMI8226 cells [1]) | viability at 48 h, 9 nM (in vitro) | serum hIgG levels and tumor volume vs vehicle (LAGκ-1A tumor; COMPOUND 1 1 mg/kg IV, bortezomib 0.5 mg/kg IV, twice weekly) | cytotoxicity at 0.0005 µM (MM1S cells) | AIF expression vs vehicle-treated tumors [2] | days to tumor progression (LAGκ-1B tumor; [4]) | survival longer than vehicle-treated mice (LAGκ-1B tumor; [4]) | tumor growth vs vehicle (LAGκ-1B tumor; bortezomib 0.5 mg/kg IV, COMPOUND 1 1 mg/kg IV, alone or together, combination after 21 days P=0.0014) | drug-related / toxicity-related deaths (LAGκ-1B tumor; mouse, in vivo) | effect on growth of CD138-negative MM cells (CD138-negative MM cells) | cytotoxicity at 40 µM (RPMI8226 cells [3]) | serum hIgG levels and tumor volume vs vehicle (LAGκ-1A tumor; melphalan 1 mg/kg IP weekly, COMPOUND 1 1 mg/kg IV twice weekly, 3 weeks) | tumor volume (LAGκ-1B tumor; melphalan 3 mg/kg IP weekly, COMPOUND 1 1 mg/kg IV twice weekly, alone or together, three weeks) |
| --- | --- | --- | --- | --- | --- | --- | --- | --- | --- | --- | --- | --- | --- |
| CC(C)C[C@H](NC(=O)[C@H](Cc1ccccc1)NC(=O)c1cnccn1)B(O)O [bortezomib, [(1R)-3-methyl-1-({(2S)-3-phenyl-2-[(pyrazin-2-ylcarbonyl)amino]propanoyl}amino)butyl]boronic acid, reference compound] | 17.5 % of cells | ~85% | only partially inhibited | ~16% | elevated AIF expression | 35 days | 20% | only modestly suppresses | one death each | little effect |  |  |  |
| N[C@@H](Cc1ccc(N(CCCl)CCCl)cc1)C(=O)O [melphalan, 4-[bis(2-chloroethyl)amino]-L-phenylalanine, reference compound] |  |  |  |  |  |  |  |  |  |  | ~30% | no effect | partially inhibited |
